Laboratory results from US20060240048A1 (priority 2002, published 2006).
pEC50: −log10 of the molar value.

Biological target: T1, human cannabinoid CB2 receptor (Homo sapiens, UniProt P34972)
T1 construct: expressed in transfected cells; host or cells: Saccharomyces cerevisiae strain MMY23
Test: Cannabinoid CB2 receptor agonist activity, yeast reporter assay (FDGlu fluorescence);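 for Emax: 100% equals maximal response of reference agonist HU210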
Assay type: cell-based
Settings: for Emax: read-out: efficacy value (Emax) at the cloned human cannabinoid CB2 receptor

T1 sequence (P34972 whole entry): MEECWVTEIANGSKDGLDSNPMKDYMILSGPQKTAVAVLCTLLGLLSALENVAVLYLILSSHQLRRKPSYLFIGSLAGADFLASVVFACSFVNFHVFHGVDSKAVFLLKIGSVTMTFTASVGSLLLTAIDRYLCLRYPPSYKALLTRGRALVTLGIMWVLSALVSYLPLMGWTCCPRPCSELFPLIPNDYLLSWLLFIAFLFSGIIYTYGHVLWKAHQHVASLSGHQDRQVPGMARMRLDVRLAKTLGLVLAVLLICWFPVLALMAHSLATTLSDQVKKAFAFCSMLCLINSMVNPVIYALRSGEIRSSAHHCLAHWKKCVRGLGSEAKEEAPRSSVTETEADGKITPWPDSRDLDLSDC

SMILES | pEC50 | Emax [%]
O=C(NCC1CCCCCC1)c1cnc(Nc2cccc(Cl)c2Cl)cc1C(F)(F)F [Example 137, N-Cycloheptylmethyl-6-(2,3-dichloro-phenylamino)-4-tri-fluoromethyl-nicotinamide] | > 6.52 | > 50
O=C(NCC1CCCCC1)c1cnc(Nc2ccc(Cl)cc2Cl)cc1C(F)(F)F [Example 138, N-Cyclohexylmethyl-6-(2,4-dichloro-phenylamino)-4-tri-fluoromethyl-nicotinamide] | > 6.52 | > 50
O=C(NCC1CCCCCC1)c1cnc(Nc2ccc(Cl)cc2Cl)cc1C(F)(F)F [Example 139, N-Cycloheptylmethyl-6-(2,4-dichloro-phenylamino)-4-tri-fluoromethyl-nicotinamide] | > 6.52 | > 50
O=C(NC1CCC1)c1cnc(Nc2ccc(Cl)cc2Cl)cc1C(F)(F)F [Example 140, N-Cyclobutyl-6-(2,4-dichloro-phenylamino)-4-trifluoro-methyl-nicotinamide] | > 6.52 | > 50
O=C(NCC1CCCC1)c1cnc(Nc2ccc(Cl)cc2Cl)cc1C(F)(F)F [Example 141, N-Cyclopentylmethyl-6-(2,4-dichloro-phenylamino)-4-tri-fluoromethyl-nicotinamide] |  | > 50
O=C(NCC1CCC1)c1cnc(Nc2ccc(Cl)cc2Cl)cc1C(F)(F)F [Example 142, N-Cyclobutylmethyl-6-(2,4-dichloro-phenylamino)-4-tri-fluoromethyl-nicotinamide] | > 6.52 | > 50
CC(C)CNC(=O)c1cnc(Nc2ccc(Cl)cc2Cl)cc1C(F)(F)F [Example 143, N-Isobutyl-6-(2,4-dichloro-phenylamino)-4-trifluoro-methyl-nicotinamide] | > 6.52 | > 50
O=C(NCC1CC1)c1cnc(Nc2ccc(Cl)cc2Cl)cc1C(F)(F)F [Example 144, N-Cyclopropylmethyl-6-(2,4-dichloro-phenylamino)-4-tri-fluoromethyl-nicotinamide] | > 6.52 | > 50
O=C(NCC1CCCCC1)c1cnc(Nc2cc(Cl)cc(Cl)c2)cc1C(F)(F)F [Example 146, N-Cyclohexylmethyl-6-(3,5-dichloro-phenytamino)-4-tri-fluoromethyl-nicotinamide] | > 6.52 | > 50
O=C(NCC1CCOCC1)c1cnc(Nc2cc(Cl)cc(Cl)c2)cc1C(F)(F)F [Example 147, N-(Tetrahydropyran-4-yl-methyl)-6-(3,5-dichloro-phenylamino)-4-trifluoro-methyl-nicotinamide] | > 6.52 | > 50
O=C(NC1CCC1)c1cnc(Nc2cc(Cl)cc(Cl)c2)cc1C(F)(F)F [Example 148, N-Cyclobutyl-6-(3,5-dichloro-phenylamino)-4-trifluoro-methyl-nicotinamide] | > 6.52 | > 50
O=C(NCC1CCCC1)c1cnc(Nc2cc(Cl)cc(Cl)c2)cc1C(F)(F)F [Example 149, N-Cyclopentylmethyl-6-(3,5-dichloro-phenylamino)-4-tri-fluoromethyl-nicotinamide] | > 6.52 | > 50
O=C(NCC1CCC1)c1cnc(Nc2cc(Cl)cc(Cl)c2)cc1C(F)(F)F [Example 150, N-Cyclobutylmethyl-6-(3,5-dichloro-phenylamino)-4-tri-fluoromethyl-nicotinamide] | > 6.52 | > 50
CC(C)CNC(=O)c1cnc(Nc2cc(Cl)cc(Cl)c2)cc1C(F)(F)F [Example 151, N-Isobutyl-6-(3,5-dichloro-phenylamino)-4-trifluoro-methyl-nicotinamide] | > 6.52 | > 50
O=C(NCC1CC1)c1cnc(Nc2cc(Cl)cc(Cl)c2)cc1C(F)(F)F [Example 152, N-Cyclopropylmethyl-6-(3,5-dichloro-phenylamino)-4-tri-fluoromethyl-nicotinamide] | > 6.52 | > 50
CC(C)CNC(=O)c1cnc(Nc2ccc(Cl)c(Cl)c2)cc1C(F)(F)F [Example 153, N-Isobutyl-6-(3,4-dichloro-phenylamino)-4-trifluoro-methyl-nicotinamide] | > 6.52 | > 50
O=C(NC1CCC1)c1cnc(Nc2ccc(Cl)c(Cl)c2)cc1C(F)(F)F [Example 154, N-Cyclobutyl-6-(3,4-dichloro-phenylamino)-4-trifluoro-methyl-nicotinamide] | > 6.52 | > 50
O=C(NCC1CCOCC1)c1cnc(Nc2ccc(Cl)c(Cl)c2)cc1C(F)(F)F [Example 155, N-(Tetrahydropyran-4-yl-methyl)-6-(3,4-dichloro-phenylamino)-4-trifluoro-methyl-nicotinamide] | > 6.52 | > 50
O=C(NCC1CCCC1)c1cnc(Nc2ccc(Cl)c(Cl)c2)cc1C(F)(F)F [Example 156, N-Cyclopentylmethyl-6-(3,4-dichloro-phenylamino)-4-tri-fluoromethyl-nicotinamide] | > 6.52 | > 50
O=C(NCC1CCC1)c1cnc(Nc2ccc(Cl)c(Cl)c2)cc1C(F)(F)F [Example 157, N-Cyclobutylmethyl-6-(3,4-dichloro-phenylamino)-4-tri-fluoromethyl-nicotinamide] | > 6.52 | > 50
O=C(NCC1CC1)c1cnc(Nc2ccc(Cl)c(Cl)c2)cc1C(F)(F)F [Example 158, N-Cyclopropylmethyl-6-(3,4-dichloro-phenylamino)-4-tri-fluoromethyl-nicotinamide] | > 6.52 | > 50
O=C(NCC1CCCCC1)c1cnc(Nc2ccc(Cl)c(Cl)c2)cc1C(F)(F)F [Example 159, N-Cyclohexylmethyl-6-(3,4-dichloro-phenylamino)-4-tri-fluoromethyl-nicotinamide] | > 6.52 | > 50
O=C(NCC1CCC1)c1cnc(Nc2ccc(Cl)cc2F)cc1C(F)(F)F [Example 160, N-Cyclobutylmethyl-6-(2-fluoro-4-chloro-phenyl-amino)-4-trifluoromethyl-nicotinamide] | > 6.52 | > 50
O=C(NCC1CCCC1)c1cnc(Nc2ccc(Cl)cc2F)cc1C(F)(F)F [Example 161, N-Cyclopentylmethyl-6-(2-fluoro-4-chloro-phenyl-amino)-4-trifluoromethyl-nicotinamide] | > 6.52 | > 50
O=C(NCC1CCOCC1)c1cnc(Nc2ccc(Cl)cc2F)cc1C(F)(F)F [Example 162, N-(Tetrahydropyran-4-yl-methyl)-6-(2-fluoro-4-chloro-phenylamino)-4-trifluoro-methyl-nicotinamide] | > 6.52 | > 50
O=C(NCC1CCC1)c1cnc(Nc2ccc(F)cc2Cl)cc1C(F)(F)F [Example 163, N-Cyclobutylmethyl-6-(2-Chloro-4-fluoro-phenyl-amino)-4-trifluoromethyl-nicotinamide] | > 6.52 | > 50
O=C(NCC1CCCC1)c1cnc(Nc2ccc(F)cc2Cl)cc1C(F)(F)F [Example 164, N-Cyclopentylmethyl-6-(2-Chloro-4-fluoro-phenyl-amino)-4-trifluoromethyl-nicotinamide] | > 6.52 | > 50
O=C(NCC1CCOCC1)c1cnc(Nc2ccc(F)cc2Cl)cc1C(F)(F)F [Example 165, N-(Tetrahydropyran-4-yl-methyl)-6-(2-chloro-4-fluoro-phenylamino)-4-trifluoro-methyl-nicotinamide] | > 6.52 | > 50
